Assay: In vivo pharmacokinetic study, single oral dose
Design: species or system CD-1 mice
Procedure: Female CD-1 mice (Harlan Interfauna Iberica) at 8 weeks of age were used for single oral dose pharmacokinetic studies (n=2). Dosing solutions were prepared in 20% (v:v) Captisol in water, at a target dose of 50 mg kg^−1 (dose volume of 20 ml kg^−1). After oral dosing, blood samples (25 μl) were collected at 30 min, 1 h, 6 h and 8 h post dose for TCMDC-123767. All the blood samples were diluted with 25 μl of an aqueous solution of saponine 1% (w:v), and stored at −80 °C until analysis. Mice blood samples were analysed for each compound using a method upon protein precipitation followed by LC-MS/MS analysis (Applied Biosystems). Data analysis of the concentration time profiles was performed by noncompartmental methods by using WinNonLin Phoenix Version 6.3.

FC(F)(F)c1cnc(Sc2nnc(-c3ccncc3)o2)c(Cl)c1 [TCMDC-123767]
elimination in vivo (oral 50 mg kg^−1, mouse): rapidly eliminated
exposure levels in blood (oral 50 mg kg^−1, mouse): very low
last detected in blood above the lower limit of quantification (time post-administration) (oral 50 mg kg^−1, mouse blood, LLOQ 2.5 ng ml^−1): 1 h

Source: publication PMC5442318, “Hundreds of dual-stage antimalarial molecules discovered by a functional gametocyte screen” (Nature Communications, 2017)
